US9562899B2, “Method of detecting OXA-048 carbapenemase producing bacteria” (BIOMÉRIEUX, priority 2012, dated 2017)

Key:
[1] = test system: OXA-48 strains; assay: Temocillin MIC with EDTA in the medium (Example 2); format: cell-based, Enterobacteriaceae; conditions: Ex 2, MIC in mg/l
Description: (§1) Optimization of the Detection Specificity by Introducing Specific Inhibitors Inhibition of Class B Strains (NDM, VIM, IMP) by Adding EDTA
(§2) Identical to that used to determine the temocillin MICs by agar dilution (example 1).
(§3) For each temocillin concentration, the following concentrations of active EDTA will be tested in the form of disodium EDTA: 0, 1.77, 2.12, 2.47 and 2.83 mmol/l.
(§4) Method: identical to the method used in example 1.

[2] = test system: KPC strains; assay: Temocillin MIC with EDTA in the medium (Example 2); format: cell-based, Enterobacteriaceae; conditions: Ex 2, MIC in mg/l
Description: as §1, §2, §3, §4

[3] = test system: IMP strains; assay: Temocillin MIC with EDTA in the medium (Example 2); format: cell-based, Enterobacteriaceae; conditions: Ex 2, MIC in mg/l
Description: as §1, §2, §3, §4

[4] = test system: OXA-48 strains; assay: Prototype medium, strains detected (Example 3); format: cell-based, Enterobacteriaceae; conditions: 24 hours of incubation
Description: (§5) The media are prepared in 55 mm diameter Petri dishes. They are inoculated using a bacterial suspension in physiological saline at 0.5 McF for the non-OXA-48 strains and with a 1/100 and 1/10 000 dilution of a suspension at 0.5 McF for the OXA-48 strains. The inoculation consists of 3-quadrant streaking using a 10 μl calibrated loop: theoretical deposit of 10^4 or 10^2 CFU for the OXA-48 strains and of 10^6 CFU for the strains not producing OXA-48.
(§6) The media are incubated at 37° C. The readings will be carried out after 18 and 24 hours of incubation.
(§7) The growth density, the colony sizes and also the coloration (color and strength) are evaluated.
(§8) Reaction medium identical to the base used for example 1. A selective system comprising a mixture of antibiotics and antifungals which is specific for Gram-positives, yeasts and Gram-negatives which are non-fermenting, and also cloxacillin and EDTA, is also added.
(§9) A medium at 200 mg/l of temocillin is tested without selective system as indicated above.

[5] = test system: Non-OXA-48 strains; assay: Prototype medium, strains detected (Example 3); format: cell-based, Enterobacteriaceae; conditions: Non-OXA-48 deposit of 10^6 CFU; temocillin 300 mg/l; 24 hours
Description: as §5, §6, §7, §8, §9

[6] = test system: BLSE strains; assay: Temocillin MIC, agar dilution (Example 1); format: cell-based, Enterobacteriaceae; conditions: Ex 1; temocillin alone; MIC in mg/l
Description: (§10) Determination of the MICs with Respect to Temocillin for a Panel of CPE Strains (Using the Agar Dilution Method)
(§11) Reaction medium: the base is a chromLD™ CPS medium (bioMérieux, ref. 43821-43829), comprising a chromogenic substrate for beta-glucuronidase, a chromogenic substrate for beta-glucosidase, a chromogenic substrate for beta-galactosidase and a substrate for deaminase. Temocillin is added to this base medium at the concentrations indicated hereinafter.
(§12) Temocillin range tested: 50-150-200-300 mg/l (disodium temocillin, Eumedica SA, Manage, Belgium).
(§13) The media are inoculated by depositing a spot: 1 μl of a microbial suspension in physiological saline at 0.5 McF, diluted to 1/10.
(§14) Incubation for 24 h at 37° C.
(§15) Reading after incubation for 24 hours. The medium with the smallest temocillin concentration on which a negative growth spot is obtained will be retained as the MIC. The spots having only 3 colonies or less or a total absence of growth were considered to be negative.

[7] = test system: AmpC strains; assay: Temocillin MIC, agar dilution (Example 1); format: cell-based, Enterobacteriaceae; conditions: Ex 1; temocillin alone; MIC in mg/l
Description: as §10, §11, §12, §13, §14, §15

[8] = test system: strains with a metallo-carbapenemase; conditions: Livermore et al.; cited from earlier work

CO[C@@]1(NC(=O)C(C(=O)O)c2ccsc2)C(=O)N2[C@@H](C(=O)O)C(C)(C)S[C@@H]21 (stereo partly drawn) [temocillin]
13: No. of OXA-48 strains with MIC >300 ([1]; 2.47 mmol/l of active EDTA)
0: No. of OXA-48 strains with MIC 150 ([1]; 0 mmol/l of EDTA) | No. of OXA-48 strains with MIC 200 ([1]; 0 mmol/l of EDTA) | No. of OXA-48 strains with MIC ≦50 ([1]; 0 mmol/l of EDTA) | No. of OXA-48 strains with MIC 150 ([1]; 1.77 mmol/l of active EDTA) | No. of OXA-48 strains with MIC 200 ([1]; 1.77 mmol/l of active EDTA) | No. of OXA-48 strains with MIC 300 ([1]; 1.77 mmol/l of active EDTA) | No. of OXA-48 strains with MIC ≦50 ([1]; 1.77 mmol/l of active EDTA) | No. of OXA-48 strains with MIC 150 ([1]; 2.12 mmol/l of active EDTA) | No. of OXA-48 strains with MIC 200 ([1]; 2.12 mmol/l of active EDTA) | No. of OXA-48 strains with MIC 300 ([1]; 2.12 mmol/l of active EDTA) | No. of OXA-48 strains with MIC ≦50 ([1]; 2.12 mmol/l of active EDTA) | No. of OXA-48 strains with MIC 150 ([1]; 2.47 mmol/l of active EDTA) | No. of OXA-48 strains with MIC 200 ([1]; 2.47 mmol/l of active EDTA) | No. of OXA-48 strains with MIC ≦50 ([1]; 2.47 mmol/l of active EDTA) | No. of OXA-48 strains with MIC 200 ([1]; 2.83 mmol/l of active EDTA) | No. of KPC strains with MIC 150 ([2]; 0 mmol/l of EDTA) | No. of KPC strains with MIC 200 ([2]; 0 mmol/l of EDTA) | No. of KPC strains with MIC 300 ([2]; 0 mmol/l of EDTA) | No. of KPC strains with MIC 150 ([2]; 1.77 mmol/l of active EDTA) | No. of KPC strains with MIC 200 ([2]; 1.77 mmol/l of active EDTA) | No. of KPC strains with MIC 300 ([2]; 1.77 mmol/l of active EDTA) | No. of KPC strains with MIC 150 ([2]; 2.12 mmol/l of active EDTA) | No. of KPC strains with MIC 200 ([2]; 2.12 mmol/l of active EDTA) | No. of KPC strains with MIC 300 ([2]; 2.12 mmol/l of active EDTA) | No. of KPC strains with MIC 150 ([2]; 2.47 mmol/l of active EDTA) | No. of KPC strains with MIC 200 ([2]; 2.47 mmol/l of active EDTA) | No. of KPC strains with MIC 300 ([2]; 2.47 mmol/l of active EDTA) | No. of KPC strains with MIC 150 ([2]; 2.83 mmol/l of active EDTA) | No. of KPC strains with MIC 200 ([2]; 2.83 mmol/l of active EDTA) | No. of KPC strains with MIC 300 ([2]; 2.83 mmol/l of active EDTA) | No. of KPC strains with MIC >300 ([2]; 2.83 mmol/l of active EDTA) | No. of IMP strains with MIC 150 ([3]; 0 mmol/l of EDTA) | No. of IMP strains with MIC 200 ([3]; 0 mmol/l of EDTA) | No. of IMP strains with MIC 300 ([3]; 0 mmol/l of EDTA) | No. of IMP strains with MIC 150 ([3]; 1.77 mmol/l of active EDTA) | No. of IMP strains with MIC 200 ([3]; 1.77 mmol/l of active EDTA) | No. of IMP strains with MIC 300 ([3]; 1.77 mmol/l of active EDTA) | No. of IMP strains with MIC 150 ([3]; 2.12 mmol/l of active EDTA) | No. of IMP strains with MIC 200 ([3]; 2.12 mmol/l of active EDTA) | No. of IMP strains with MIC 300 ([3]; 2.12 mmol/l of active EDTA) | No. of IMP strains with MIC 150 ([3]; 2.47 mmol/l of active EDTA) | No. of IMP strains with MIC 200 ([3]; 2.47 mmol/l of active EDTA) | No. of IMP strains with MIC 300 ([3]; 2.47 mmol/l of active EDTA) | No. of IMP strains with MIC 150 ([3]; 2.83 mmol/l of active EDTA) | No. of IMP strains with MIC 200 ([3]; 2.83 mmol/l of active EDTA) | No. of IMP strains with MIC 300 ([3]; 2.83 mmol/l of active EDTA) | No. of BLSE strains with MIC 150 [6] | No. of BLSE strains with MIC 200 [6] | No. of BLSE strains with MIC 300 [6] | No. of AmpC strains with MIC 150 [7] | No. of AmpC strains with MIC 200 [7] | No. of AmpC strains with MIC 300 [7] | No. of AmpC strains with MIC >300 [7]
1: No. of OXA-48 strains with MIC 150 ([1]; 2.83 mmol/l of active EDTA) | No. of KPC strains with MIC >300 ([2]; 0 mmol/l of EDTA) | No. of KPC strains with MIC >300 ([2]; 1.77 mmol/l of active EDTA) | No. of KPC strains with MIC >300 ([2]; 2.12 mmol/l of active EDTA) | No. of KPC strains with MIC >300 ([2]; 2.47 mmol/l of active EDTA) | No. of IMP strains with MIC >300 ([3]; 0 mmol/l of EDTA) | No. of IMP strains with MIC >300 ([3]; 1.77 mmol/l of active EDTA) | No. of IMP strains with MIC >300 ([3]; 2.12 mmol/l of active EDTA) | No. of IMP strains with MIC >300 ([3]; 2.47 mmol/l of active EDTA) | No. of IMP strains with MIC >300 ([3]; 2.83 mmol/l of active EDTA)
18: No. of KPC strains with MIC ≦50 ([2]; 0 mmol/l of EDTA) | No. of KPC strains with MIC ≦50 ([2]; 1.77 mmol/l of active EDTA) | No. of KPC strains with MIC ≦50 ([2]; 2.12 mmol/l of active EDTA) | No. of KPC strains with MIC ≦50 ([2]; 2.47 mmol/l of active EDTA)
12: No. of OXA-48 strains with MIC >300 ([1]; 0 mmol/l of EDTA) | No. of IMP strains with MIC ≦50 ([3]; 0 mmol/l of EDTA) | No. of IMP strains with MIC ≦50 ([3]; 1.77 mmol/l of active EDTA) | No. of IMP strains with MIC ≦50 ([3]; 2.12 mmol/l of active EDTA) | No. of IMP strains with MIC ≦50 ([3]; 2.47 mmol/l of active EDTA) | No. of IMP strains with MIC ≦50 ([3]; 2.83 mmol/l of active EDTA)
32/35: strains resistant to temocillin [8]
9/15: No. of strains detected ([4]; OXA-48 deposit of 10^2 CFU, temocillin 500 mg/l)
15/15: No. of strains detected ([4]; OXA-48 deposit of 10^2 CFU, temocillin 200 mg/l without selective system) | No. of strains detected ([4]; OXA-48 deposit of 10^2 CFU, temocillin 200 mg/l) | No. of strains detected ([4]; OXA-48 deposit of 10^2 CFU, temocillin 300 mg/l) | No. of strains detected ([4]; OXA-48 deposit of 10^4 CFU, temocillin 200 mg/l without selective system) | No. of strains detected ([4]; OXA-48 deposit of 10^4 CFU, temocillin 200 mg/l) | No. of strains detected ([4]; OXA-48 deposit of 10^4 CFU, temocillin 300 mg/l) | No. of strains detected ([4]; OXA-48 deposit of 10^4 CFU, temocillin 400 mg/l)
19: No. of KPC strains with MIC ≦50 ([2]; 2.83 mmol/l of active EDTA)
8: No. of OXA-48 strains with MIC >300 ([1]; 2.83 mmol/l of active EDTA) | No. of BLSE strains with MIC ≦50 [6]
3: No. of OXA-48 strains with MIC 300 ([1]; 0 mmol/l of EDTA) | No. of OXA-48 strains with MIC 300 ([1]; 2.83 mmol/l of active EDTA) | No. of OXA-48 strains with MIC ≦50 ([1]; 2.83 mmol/l of active EDTA)
12/15: No. of strains detected ([4]; OXA-48 deposit of 10^4 CFU, temocillin 500 mg/l)
15: No. of OXA-48 strains with MIC >300 ([1]; 1.77 mmol/l of active EDTA) | No. of OXA-48 strains with MIC >300 ([1]; 2.12 mmol/l of active EDTA)
2: No. of OXA-48 strains with MIC 300 ([1]; 2.47 mmol/l of active EDTA) | No. of BLSE strains with MIC >300 [6]
1/13: No. of strains detected [5]
10: No. of AmpC strains with MIC ≦50 [7]
